From EP2818471A1, “Nitrogen bicyclic compounds as inhibitors for Scyl1 and Grk5” (Max-Planck-Gesellschaft zur Förderung der Wissenschaften …, priority 2013, dated 2014)
Where two headings read alike, the source gives them in different places.

Legend:
[1] = system: beta-TC6 cells; test: Insulin HTRF assay, relative activity Ar normalized to sunitinib; type: cell-based; settings: Mus musculus, normalized to positive control sunitinib (5 µM = 100%), Table 10
Outline: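 Relative activity Ar was scaled between 0% and 100% controls, with sunitinib at 5 µM f.c. as reference. Insulin released by beta-TC6 cells was quantified by sandwich HTRF (Eu-cryptate/XL665 antibodies, 120 min RT). Cells had been seeded 24 or 48 h, then treated 2–4 h at 37°C in induction buffer, 0.5% DMSO.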

[2] = system: beta-TC6 cells; test: Insulin release in high glucose medium, rat/mouse insulin ELISA; type: cell-based; settings: 2 h, high glucose (4.5 g/L)
[3] = system: beta-TC6 cell system; test: Comparison of insulin release with commercially available inhibitors, mouse/rat insulin ELISA; type: cell-based; settings: Mus musculus, Beta-TC6; 5µM, 2 h; DMSO = 0; Table 9
Protocol: Based on literature references, several commercially available inhibitors were compared with compounds according to the invention. […] Cells were cultured for 24 h before treated with the inventive compounds and control inhibitors for 2 h at 37 °C and 5 % (v/v) CO2. Insulin in the supernatant was detected by mouse/rat insulin ELISA.

[4] = system: beta-TC6 cells; test: Insulin release in high glucose medium, rat/mouse insulin ELISA; type: cell-based; settings: for activation at 5 µM / fold induction at 5 µM: Mus musculus, Beta-TC6, 2 h; for fold induction at 5 µM: high glucose (4.5 g/L)
Protocol: Cells were cultured overnight, washed with PBS and then treated with 5 µM of test compounds as well as non-inhibitor controls for 2 h in a high glucose (4.5 g/L) DMEM at 37°C and 5 % (v/v) CO2. Release of insulin was detected using a rat/mouse insulin ELISA.
After incubation, the supernatant of the beta-TC6 insulinoma cells was diluted 1:20, whereas the supernatants of the RIN-T2B-5AH were diluted 1:10. The insulin release was measured with rat/mouse insulin ELISA (Merck Millipore Darmstadt, Cat. # EZRMI-13K) by following the manufacture's protocol. The enzyme activity of the horseradish peroxidase of the immobilized biotinylated antibodies was monitored spectrophotometrically by the increased absorbency at 490 nm, and corrected by the absorbency at 610 nm.
Afterwards, the supernatant was analyzed for insulin using the rat/mouse insulin ELISA (Merck Millipore Darmstadt, Cat. # EZRMI-13K) by following the manufacture's protocol..
Cells were treated for 2 h in a high glucose (4.5 g/L) DMEM media at 37°C and 5 % (v/v) CO2. Insulin release was analyzed using the rat/mouse insulin ELISA.

[5] = system: 3T3-L pre-adipocytes differentiated to matured adipocytes; test: Insulin dependence of 2-NBDG uptake in matured adipocytes; type: cell-based; settings: compound added beside 10 µg/ml insulin, 1 h, 100 µM 2-NBDG; Figure 12
Protocol: To investigate if the 2-NBDG uptake of the inventive compound inhibitors of Scyl1 and GRK5 are insulin dependent, 3T3-L pre-adipocytes were differentiated to matured adipocytes. Afterwards, cells were starved for 4 h before they were washed and glucose free media supplied with 100 µM 2-NBDG, in the presence and absence of 10 µg/ml insulin and either Cpd 10 (Scyl1) of Cpd 1 (Grk5) was added for 1 h at 37 °C. Furthermore, as internal controls, samples of glucose free media or glucose free media with compound were measured (data not shown). Fluorescence was analyzed by flow cytometer (FACS Calibur, BD Bioscience, respectively a BD Accuri® C6 Flow Cytometer). For evaluation, cells were gated using the side- and forward scatter SSC/FSC and quantified by excited at 488 and detected at 533 nm (FL1).

[6] = system: C2C12 cells; test: 2-NBDG glucose uptake by flow cytometry; settings: for fold induction at 5 µM: Mus musculus, C2C12, 1 h, read-out: Ratio of 2-NBDG uptake
Protocol: (§1) Furthermore, as internal controls, samples of glucose free media, respectively glucose free media with test compound, were tested. Subsequently, cells were washed, trypsinized and harvested in ice-cold PBS before centrifuged at 1.6 x10^3 rpm at 4°C. Cells were analyzed by flow cytometry (FACS Calibur, BD Bioscience, respectively a BD Accuri® C6 Flow Cytometer).
(§2) To investigate the impact of the Grk5 inhibitors on Glucose uptake, cells were cultured 1 h in glucose free media supplied with 100 µM 2-NBDG at 37 °C and 5 % (v/v) CO2. Furthermore, as internal controls, samples of glucose free media, respectively glucose free media with test compounds, were measured. Fluorescence was analyzed by flow cytometer (FACS Calibur, BD Bioscience, respectively a BD Accuri® C6 Flow Cytometer).

[7] = system: beta-TC6 cells; test: 2-NBDG glucose uptake by flow cytometry; settings: Mus musculus, Beta-TC6, 1 h, read-out: Ratio of 2-NBDG uptake
Protocol: as §1, §2

Compound | Emax [1] | fold induction at 2 µM ([2]; 0 µM = 1, Table 7) | fold induction at 10 µM ([2]; 0 µM = 1, Table 7) | activation at 5 µM [3] | activation at 5 µM ([4]; high glucose (4.5 g/L) DMEM, Example 9, Figure 6, ± SEM, read-out: increase of insulin release) | fold induction at 5 µM ([4]; 0 µM = 1, Table 7) | additional (insulin independent) increase [5] | uptake of 2-NBDG compared with negative control background ([6]; C2C12, 1 h compound treatment, Figure 10) | fold induction at 5 µM [6] | fold induction at 5 µM [7] | fold induction at 2 µM ([2]; 0 µM = 1, Table 3) | fold induction at 10 µM ([2]; 0 µM = 1, Table 3) | increase of insulin release ([4]; 5 µM, 2 h, high glucose (4.5 g/L) DMEM, Example 4, Figure 2) | activation at 5 µM ([4]; high glucose (4.5 g/L) DMEM, Example 4, Figure 2, read-out: increase of insulin release) | fold induction at 5 µM ([4]; 0 µM = 1, Table 3)
NC(=O)c1ccc(-c2cnc3ccc(Cc4ccc(F)cc4)nn23)cc1 [compound 1, 4-[6-[(4-fluorophenyl)methyl]imidazo[1,2-b]pyridazin-3-yl]benzamide] | 20 to 50% | 1.24 | 2.03 | 70.7% | 42.8 ± 6.8% | 1.81 | 48.9 ± 7.2% | significantly increased uptake of 2-NBDG | 2.45 | 1.57 |  |  |  |  | 
COc1cc(-c2ccc3ncc(-c4cccnc4)n3n2)cc(OC)c1OC [compound 10, 3-(3-pyridyl)-6-(3,4,5-trimethoxyphenyl)imidazo[1,2-b]pyridazine] | 20 to 50% |  |  | 89.8% |  |  | 18.2 ± 3.5% |  | 1.55 | 1.14 | 1.66 | 2.68 | 60.2 ± 8.9% | 60.2 ± 8.9% | 3.04
